# According to patent US20250188057A1, “NON-AROMATIC CYCLIC-PYRIMIDINE ANALOGS AS GLUCOSYLCERAMIDE SYNTHASE INHIBITORS” (Merck Sharp & Dohme LLC, priority 2022, published 2025):
# Biological target: glucosylceramide synthase (GCS) (Homo sapiens (Human), UniProt Q16739)
# Test: UDP-Glo glucosylceramide synthase biochemical assay
# Conditions: endogenous GCS in Golgi preparations isolated from human A375 malignant melanoma skin cells; UDP detection by luminescence
# In short: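 Endogenous GCS in A375 Golgi preparations (1.5 μg total protein) was preincubated with compound for 30 min at RT, then reacted with UDP-glucose and ceramide for 20 h at RT. UDP was detected by luciferase luminescence, normalized to DMSO and reference-inhibitor controls, with EC50 and % Emax from a 4PL fit.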
# Sequence of glucosylceramide synthase (GCS) (Q16739 whole entry): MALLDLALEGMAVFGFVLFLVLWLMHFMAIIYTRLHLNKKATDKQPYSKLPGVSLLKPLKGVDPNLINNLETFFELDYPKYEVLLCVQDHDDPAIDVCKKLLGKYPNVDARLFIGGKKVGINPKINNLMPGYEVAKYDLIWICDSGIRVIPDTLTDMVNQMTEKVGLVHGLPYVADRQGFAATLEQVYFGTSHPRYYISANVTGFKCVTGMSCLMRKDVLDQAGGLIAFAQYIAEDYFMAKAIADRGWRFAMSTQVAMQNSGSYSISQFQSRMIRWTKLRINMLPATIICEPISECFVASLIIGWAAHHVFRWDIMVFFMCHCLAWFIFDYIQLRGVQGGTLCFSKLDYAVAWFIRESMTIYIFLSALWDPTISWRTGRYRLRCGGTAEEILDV
row,IC50 [nM],Structure (SMILES)
1,902,"COc1ccc(N2CCC3(CCN(c4nc(C5CC5)ncc4CO)C3)C2)cc1 (stereo not drawn) [Compound 125, (2-cyclopropyl-4-(7-(4-methoxyphenyl)-2,7-diazaspiro[4.4]nonan-2-yl)pyrimidin-5-yl)methanol]"
2,321,"COc1ccc(N2CCC(Oc3nc(C4CC4)ncc3C#N)C2)cc1 (stereo not drawn) [Compound 105, 2-cyclopropyl-4-((1-(4-methoxyphenyl)pyrrolidin-3-yl)oxy)pyrimidine-5-carbonitrile]"
3,3030,"Cc1nc(N2CC(c3nc4ccccc4n3C)C2)cc(N2CC(c3ccccc3)CC2=O)n1 (stereo not drawn) [Compound 119, 1-(2-methyl-6-(3-(1-methyl-1H-benzo[d]imidazol-2-yl)azetidin-1-yl)pyrimidin-4-yl)-4-phenylpyrrolidin-2-one]"
4,2870,"Cc1nc(N2CC(c3nc4ccccc4[nH]3)C2)cc(N2CC(CC(C)C)CC2=O)n1 (stereo not drawn) [Compound 118, 1-(6-(3-(1H-benzo[d]imidazol-2-yl)azetidin-1-yl)-2-methylpyrimidin-4-yl)-4-isobutylpyrrolidin-2-one]"
5,1590,"N#Cc1cnc(C2CC2)nc1N1CCC(N(C2CC2)S(=O)(=O)c2ccccc2)CC1 [Compound 83, N-(1-(5-cyano-2-cyclopropylpyrimidin-4-yl)piperidin-4-yl)-N-cyclopropylbenzenesulfonamide]"
6,14,"N#Cc1cnc(C2CC2)nc1NC1CCCc2sc(C3CCCCC3)nc21 (stereo not drawn) [Compound 94, 4-((2-cyclohexyl-4,5,6,7-tetrahydrobenzo[d]thiazol-4-yl)amino)-2-cyclopropylpyrimidine-5-carbonitrile]"
7,168,"CNC(=O)C12CN(c3nc(C4CC4)ncc3C#N)CC1C(c1ccc(C)cc1)=NO2 (stereo not drawn) [Compound 85, 5-(5-cyano-2-cyclopropylpyrimidin-4-yl)-N-methyl-3-(p-tolyl)-3a,4,5,6-tetrahydro-6aH-pyrrolo[3,4-d]isoxazole-6a-carboxamide]"
8,446,"Cc1ccc(-c2noc(CN3CCN(c4nc(C5CC5)ncc4C#N)CC3)n2)cc1 [Compound 88, 2-cyclopropyl-4-(4-((3-(p-tolyl)-1,2,4-oxadiazol-5-yl)methyl)piperazin-1-yl)pyrimidine-5-carbonitrile]"
9,19,"N#Cc1cnc(C2CC2)nc1NC1CCCc2sc(C3CCCC3)nc21 (stereo not drawn) [Compound 95, 4-((2-cyclopentyl-4,5,6,7-tetrahydrobenzo[d]thiazol-4-yl)amino)-2-cyclopropylpyrimidine-5-carbonitrile]"

# The next lines start with the compound.
row,Structure (SMILES),IC50 [nM]
1,"N#Cc1cnc(C2CC2)nc1OC[C@H]1CCN(c2cnc(-n3cccn3)cn2)C1 [Compound 56, (S)-4-((1-(5-(1H-pyrazol-1-yl)pyrazin-2-yl)pyrrolidin-3-yl)methoxy)-2-cyclopropylpyrimidine-5-carbonitrile]",161
2,"COc1ccc2c(c1)C(Nc1nc(C3CC3)ncc1C#N)CC2 (stereo not drawn) [Compound 63, 2-cyclopropyl-4-((6-methoxy-2,3-dihydro-1H-inden-1-yl)amino)pyrimidine-5-carbonitrile]",8.6
3,"N#Cc1cnc(C2CC2)nc1OC[C@H]1CCN(c2ccc(OC(F)F)cn2)C1 [Compound 29, (S)-2-cyclopropyl-4-((1-(5-(difluoromethoxy)pyridin-2-yl)pyrrolidin-3-yl)methoxy)pyrimidine-5-carbonitrile]",148
4,"N#Cc1cnc(C2CC2)nc1OC[C@H]1CCN(c2cc(F)ncc2Cl)C1 [Compound 36, (S)-4-((1-(5-chloro-2-fluoropyridin-4-yl)pyrrolidin-3-yl)methoxy)-2-cyclopropylpyrimidine-5-carbonitrile]",2570
5,"CCOc1ccc(N2CC[C@H](COc3nc(C4CC4)ncc3C#N)C2)cn1 [Compound 25, (S)-2-cyclopropyl-4-((1-(6-ethoxypyridin-3-yl)pyrrolidin-3-yl)methoxy)pyrimidine-5-carbonitrile]",231
6,"N#Cc1cnc(C2CC2)nc1OC[C@H]1CCN(c2cccc(-c3nccs3)c2)C1 [Compound 10, (S)-2-cyclopropyl-4-((1-(3-(thiazol-2-yl)phenyl)pyrrolidin-3-yl)methoxy)pyrimidine-5-carbonitrile]",249
7,"N#Cc1cnc(C2CC2)nc1OCC1CCCN1c1ccccc1 (stereo not drawn) [Compound 59, 2-cyclopropyl-4-((1-phenylpyrrolidin-2-yl)methoxy)pyrimidine-5-carbonitrile]",363
8,"N#Cc1cnc(C2CC2)nc1OC[C@H]1CCN(c2nnc(C3CC3)s2)C1 [Compound 23, (S)-2-cyclopropyl-4-((1-(5-cyclopropyl-1,3,4-thiadiazol-2-yl)pyrrolidin-3-yl)methoxy)pyrimidine-5-carbonitrile]",3660
9,"N#Cc1cnc(C2CC2)nc1OC[C@H]1CCN(c2cccc(-c3ncco3)c2)C1 [Compound 9, (S)-2-cyclopropyl-4-((1-(3-(oxazol-2-yl)phenyl)pyrrolidin-3-yl)methoxy)pyrimidine-5-carbonitrile]",826
10,"N#Cc1cnc(C2CC2)nc1OC[C@H]1CCN(c2ccc(-c3ccon3)cc2)C1 [Compound 19, (S)-2-cyclopropyl-4-((1-(4-(isoxazol-3-yl)phenyl)pyrrolidin-3-yl)methoxy)pyrimidine-5-carbonitrile]",37
11,"N#Cc1cnc(C2CC2)nc1OC[C@H]1CCN(c2ccc(C(F)(F)F)nc2)C1 [Compound 44, (S)-2-cyclopropyl-4-((1-(6-(trifluoromethyl)pyridin-3-yl)pyrrolidin-3-yl)methoxy)pyrimidine-5-carbonitrile]",140
12,"N#Cc1cnc(C2CC2)nc1N(CC1CCCO1)CC1CC2C=CC1C2 (stereo not drawn) [Compound 74, 4-((bicyclo[2.2.1]hept-5-en-2-ylmethyl)((tetrahydrofuran-2-yl)methyl)amino)-2-cyclopropylpyrimidine-5-carbonitrile]",278
13,"OCc1cnc(C2CC2)nc1OC[C@H]1CCN(c2ccc(C(F)(F)F)nc2)C1 [Compound 1, (S)-(2-cyclopropyl-4-((1-(6-(trifluoromethyl)pyridin-3-yl)pyrrolidin-3-yl)methoxy)pyrimidin-5-yl)methanol]",579
14,"N#Cc1cnc(C2CC2)nc1N1CCC2(CC1)NC(=O)Nc1ccccc12 [Compound 75, 2-cyclopropyl-4-(2′-oxo-2′,3′-dihydro-1′H-spiro[piperidine-4,4′-quinazolin]-1-yl)pyrimidine-5-carbonitrile]",1090
15,"CC(F)(F)c1ccnc(N2CC[C@H](COc3nc(C4CC4)ncc3C#N)C2)c1 [Compound 32, (S)-2-cyclopropyl-4-((1-(4-(1,1-difluoroethyl)pyridin-2-yl)pyrrolidin-3-yl)methoxy)pyrimidine-5-carbonitrile]",3290
16,"N#Cc1cnc(C2CC2)nc1OCC1CCN(c2ccc(Cl)cc2)C1 (stereo not drawn) [Compound 57, 4-((1-(4-chlorophenyl)pyrrolidin-3-yl)methoxy)-2-cyclopropylpyrimidine-5-carbonitrile]",20
17,"N#Cc1cnc(C2CC2)nc1N1CCc2nc[nH]c2C1c1cccc(F)c1 (stereo not drawn) [Compound 66, 2-cyclopropyl-4-(4-(3-fluorophenyl)-3,4,6,7-tetrahydro-5H-imidazo[4,5-c]pyridin-5-yl)pyrimidine-5-carbonitrile]",2040
18,"N#Cc1cnc(C2CC2)nc1OC[C@H]1CCN(c2cnc3ccsc3c2)C1 [Compound 21, (S)-2-cyclopropyl-4-((1-(thieno[3,2-b]pyridin-6-yl)pyrrolidin-3-yl)methoxy)pyrimidine-5-carbonitrile]",1300
